One data set has as its target T1, human PDE4B1 (Homo sapiens, UniProt Q07343).
T1 construct: host or cells: Sf9 cells
Kind of data set: cAMP HTRF assay to determine the activity of hPDE4B1. The format is biochemical. The settings on record: inhibition of PDE4B at a test concentration of 1 μM. In a few lines:
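Human recombinant PDE4B1 from Sf9 cells (4.8 U) in Tris-HCl, MgCl2, DTT, Tween 20 buffer at pH 7.8 with 40 nM cAMP (final), 30 min at room temperature. Reaction stopped with 1 mM IBMX; remaining cAMP detected by HTRF (665/620 nm ratio). IC50 from eight-concentration curves.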

Experimental findings from US9315490B2, “2,5-substituted pyrimidines” (Grünenthal GmbH, priority 2014, dated 2016) are described below.

T1 sequence (Q07343 whole entry): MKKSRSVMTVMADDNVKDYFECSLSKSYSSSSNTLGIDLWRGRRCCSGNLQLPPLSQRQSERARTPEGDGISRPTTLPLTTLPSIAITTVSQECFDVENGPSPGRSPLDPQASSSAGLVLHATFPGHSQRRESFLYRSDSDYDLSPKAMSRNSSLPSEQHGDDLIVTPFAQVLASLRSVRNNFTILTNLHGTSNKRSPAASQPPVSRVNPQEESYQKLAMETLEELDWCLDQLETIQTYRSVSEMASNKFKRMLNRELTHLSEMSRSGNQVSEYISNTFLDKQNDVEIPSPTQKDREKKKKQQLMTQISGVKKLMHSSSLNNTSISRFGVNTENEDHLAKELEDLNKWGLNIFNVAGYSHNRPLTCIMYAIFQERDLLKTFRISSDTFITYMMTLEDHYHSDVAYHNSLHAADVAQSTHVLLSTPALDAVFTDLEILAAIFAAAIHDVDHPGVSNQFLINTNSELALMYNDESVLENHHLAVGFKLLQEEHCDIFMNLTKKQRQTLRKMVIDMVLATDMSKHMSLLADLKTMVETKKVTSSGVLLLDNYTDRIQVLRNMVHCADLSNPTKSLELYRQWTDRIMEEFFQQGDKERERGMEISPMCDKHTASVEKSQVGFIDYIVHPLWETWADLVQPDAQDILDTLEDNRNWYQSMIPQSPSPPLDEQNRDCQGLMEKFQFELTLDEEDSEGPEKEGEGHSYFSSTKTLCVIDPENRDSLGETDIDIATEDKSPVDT

`C[S+]([O-])c1cn(-c2ncc(-c3ncccc3F)cn2)c2cc(C(=O)N3CCOCC3)ccc12` (stereo not shown) [Example 201, (1-(5-(3-Fluoropyridin-2-yl)pyrimidin-2-yl)-3-(methylsulfinyl)-1H-indol-6-yl)(morpholino)methanone]: the melting point was in the range of 222 to 225 °C. Moreover, on human PDE4B1, the inhibition at 1 µM is 81%.

Regarding `COc1ccnc(-c2cnc(-n3cc([S+](C)[O-])c4ccc(C(=O)N5CCOCC5)cc43)nc2)c1` (stereo not shown) [Example 141, (1-(5-(4-Methoxypyridin-2-yl)pyrimidin-2-yl)-3-(methylsulfinyl)-1H-indol-6-yl)(morpholino)methanone], the melting point is 216 to 220 °C. The inhibition at 1 µM against human PDE4B1 was determined as 115%.

Regarding `CO[C@H]1CCN(C(=O)c2ccc3c([S+](C)[O-])cn(-c4ncc(-c5ccccc5F)cn4)c3c2)C1` (stereo partly drawn) [Example 172, (1-(5-(2-Fluorophenyl)pyrimidin-2-yl)-3-(methylsulfinyl)-1H-indol-6-yl)((S)-3-methoxypyrrolidin-1-yl)methanone], the melting point was 164 to 166 °C. For the same compound, at human PDE4B1, the inhibition at 1 µM worked out at 46%.

In turn, `CS(=O)(=O)c1cn(-c2ncc(-c3cc(C#N)ccc3F)cn2)c2cc(C(=O)N3CCNCC3)ccc12` [Example 26, 4-Fluoro-3-(2-(3-(methylsulfonyl)-6-(piperazine-1-carbonyl)-1H-indol-1-yl)pyrimidin-5-yl)benzonitrile] gave a melting point of 279 to 283 °C. Further, the inhibition at 1 µM against human PDE4B1 was 41%.

The compound `C[S+]([O-])c1cn(-c2ncc(-c3ccc(F)cc3F)cn2)c2cc(C(=O)N3CCOCC3)ccc12` (stereo not shown) [Example 18, (1-(5-(2,4-Difluorophenyl)pyrimidin-2-yl)-3-(methylsulfinyl)-1H-indol-6-yl)(morpholino)methanone] yielded a melting point of 230 to 233 °C. Besides, the inhibition at 1 µM on human PDE4B1 came to 91%.

Regarding `C[S+]([O-])c1cn(-c2ncc(-c3cc(N)ccn3)cn2)c2cc(C(=O)N3CCOCC3)ccc12` (stereo not shown) [Example 209, 2-(1-(5-(4-Aminopyridin-2-yl)pyrimidin-2-yl)-3-(methylsulfinyl)-1H-indol-6-yl)(morpholino)methanone], the melting point was 293 to 297 °C. Moreover, the inhibition at 1 µM against human PDE4B1 came out at 101%.

With `C[S+]([O-])c1cn(-c2ncc(-c3cscn3)cn2)c2cc(C(=O)N3CCOCC3)ccc12` (stereo not shown) [Example 145, (3-(Methylsulfinyl)-1-(5-(thiazol-4-yl)pyrimidin-2-yl)-1H-indol-6-yl)(morpholino)methanone], the melting point was in the range of 254 to 257 °C. Besides, at human PDE4B1, the inhibition at 1 µM was 83%.

The compound `CS(=O)(=O)c1cn(-c2ncc(-c3ccc(F)cc3F)cn2)c2cc(C(=O)N3CCOCC3)ccc12` [Example 6, (1-(5-(2,4-Difluorophenyl)pyrimidin-2-yl)-3-(methylsulfonyl)-1H-indol-6-yl)(morpholino)methanone] displayed a melting point of 247 to 252 °C. Further, the inhibition at 1 µM on human PDE4B1 was 88%.

`Cc1ccc(F)c(-c2cnc(-n3cc([S+](C)[O-])c4ccc(C(=O)N5CCOCC5)cc43)nc2)c1` (stereo not shown) [Example 198]: the melting point fell in the range of 120 to 123 °C. Moreover, the inhibition at 1 µM on human PDE4B1 came out at 114%.

The compound `C[S+]([O-])c1cn(-c2ncc(-c3ccncc3F)cn2)c2cc(C(=O)N3CCOCC3)ccc12` (stereo not shown) [Example 150, (1-(5-(3-Fluoropyridin-4-yl)pyrimidin-2-yl)-3-(methylsulfinyl)-1H-indol-6-yl)(morpholino)methanone] returned a melting point of 241 to 244 °C. Also, the inhibition at 1 µM against human PDE4B1 came to 49%.

As to `C[S+]([O-])c1cn(-c2ncc(-c3cc(C#N)ccc3F)cn2)c2cc(C(=O)N3CCNCC3)ccc12` (stereo not shown) [Example 17, 4-Fluoro-3-(2-(3-(methylsulfinyl)-6-(piperazine-1-carbonyl)-1H-indol-1-yl)pyrimidin-5-yl)benzonitrile], the melting point is 159 to 163 °C. Besides, the inhibition at 1 µM against human PDE4B1 came out at 41%.
